{"source": "patent US8629163B2", "about": "“Tetrakis-quaternary ammonium salts and methods for modulating neuronal nicotinic acteylcholine receptors” (University of Kentucky Research Foundation, priority 2007, dated 2014)", "key": {"[1]": {"biological_target": "T1, α7-type neuronal nicotinic acetylcholine receptors (Rattus norvegicus, UniProt Q05941)", "T1 construct": "The brain tissue was homogenized with a Tekmar Polytron; from tissue; host or cells: rat brain membranes (whole brain without cortex and cerebellum)", "T1 sequence (Q05941 23-502)": "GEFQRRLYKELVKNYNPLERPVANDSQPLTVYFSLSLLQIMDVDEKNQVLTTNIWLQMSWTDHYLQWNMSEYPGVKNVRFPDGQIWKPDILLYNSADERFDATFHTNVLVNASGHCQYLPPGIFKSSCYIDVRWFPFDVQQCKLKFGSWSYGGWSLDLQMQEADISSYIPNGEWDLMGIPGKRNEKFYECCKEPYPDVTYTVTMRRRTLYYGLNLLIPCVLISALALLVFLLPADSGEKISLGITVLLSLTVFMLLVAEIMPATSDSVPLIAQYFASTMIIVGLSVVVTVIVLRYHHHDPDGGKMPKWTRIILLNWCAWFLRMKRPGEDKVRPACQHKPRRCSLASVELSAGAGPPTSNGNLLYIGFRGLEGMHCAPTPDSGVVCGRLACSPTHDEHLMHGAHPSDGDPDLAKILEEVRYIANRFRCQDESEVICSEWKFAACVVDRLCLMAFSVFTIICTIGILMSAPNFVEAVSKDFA", "experiment": "Inhibition of [^3H]methyllycaconitine (MLA) binding to rat brain membranes"}, "[2]": {"test_system": "rat striatal slices", "experiment": "Nicotine-evoked [^3H]dopamine release (overflow) from superfused rat striatal slices", "type": "cell-based", "conditions": "for inhibition at 0.1 µM: % inhibition at 100 nM analog, 10 μM S(-)nicotine, rat striatal slices, read-out: Inhibition of Nicotine-evoked [^3H]DA release", "experimental": "Rat striatal slices (500 μm thickness, 6 mg wet weight) were incubated for 30 minutes in Krebs buffer (118 mM NaCl, 4.7 mM KCl, 1.2 mM MgCl2, 1.0 mM NaH2PO4, 1.3 mM CaCl2, 11.1 mM glucose, 25 mM NaHCO3, 0.11 mM L-ascorbic acid, and 0.004 mM disodium EDTA; pH 7.4, and saturated with 95% O2/5% CO2) in a metabolic shaker at 34° C. Slices were rinsed with 15 mL of fresh buffer and incubated for an additional 30 minutes in fresh buffer containing 0.1 μM [^3H]dopamine (DA; 6 slices/3 mL). Subsequently, slices were rinsed with 15 mL of fresh buffer and each slice transferred to a superfusion chamber. Slices were superfused (0.6 mL/min) for 60 minutes with Krebs buffer containing nomifensine (10 μM) and pargyline (10 μM) and maintained at 34° C., pH 7.4, with continual aeration (95% O2/5% CO2). Two 4-minute samples (2.4 mL each) were collected to determine basal outflow of [^3H]DA. Slices were superfused for 36 min following addition of the analogs to the superfusion buffer after the collection of the second sample and nine 4-minute samples were collected. For initial probe assays, the concentration of analog was 100 nM. For concentration-response studies, the concentration of analog varied from 1 nM to 10 μM, and the effect of each concentration was determined using striatal slices obtained from an individual animal (repeated measures design). Subsequently, S(−)nicotine (10 μM) was added to the buffer and nine additional 4-minute samples were collected. At the end of the experiment, each slice was solubilized and the [^3H] content of the tissue determined.\nRadioactivity in the superfusate and tissue samples was determined by liquid scintillation spectroscopy. Fractional release for tritium collected in each sample was divided by the total tritium present in the tissue at the time of sample collection and was expressed as a percentage of total tritium. Basal [^3H]outflow was calculated from the average of the tritium collected in the two […] samples just before addition of the analog. The sum of the increase in collected tritium resulting from either exposure to the test compound or exposure to S(−)nicotine in the absence and presence of the test compound equaled total [^3H]overflow. [^3H]Overflow was calculated by subtracting the [^3H]outflow during an equivalent period of prestimulation from the values in samples collected during and after drug exposure. Inasmuch as the radiolabelled compounds were not separated and identified, the tritium collected in superfusate is referred to as either [^3H]outflow or [^3H]overflow, rather than as [^3H]DA. [^3H]Overflow primarily represents [^3H]DA in the presence of nomifensine and pargyline in the superfusion buffer. […]\nAnalogs were also evaluated for their ability to inhibit NIC evoked [^3H]DA release. Antagonist activity was evaluated by comparing the NIC-evoked [^3H]overflow in the absence and presence of the analogs (see Table 1). […] Data are expressed as M±SEM. Control represents absence of compound. N=4/analog, *p<0.05\n(§1) ^aData are % inhibition at 100 nM concentration of analog for 3-4 independent experiments. Specific binding in the [^3H]NIC binding assay is calculated as the difference between the total binding of 3 nM [^3H]NIC and nonspecific binding in the presence of 10 μM cytisine. Specific binding for the [^3H]MLA binding assay is calculated as the difference between the total binding of 3 nM [^3H]MLA to the receptors alone and its nonspecific binding in the presence of 10 μM nicotine. Analog-induced inhibition of nicotine-evoked [^3H]DA release is calculated as a percent of that in the absence of analog.\n^bIC50 from full concentration response assay; data from 4-5 independent experiments, each performed in duplicate."}, "[3]": {"biological_target": "T1, α7-type neuronal nicotinic acetylcholine receptors", "experiment": "Inhibition of [^3H]methyllycaconitine (MLA) binding to rat brain membranes", "conditions": "% inhibition at 100 nM analog; 3 nM [^3H]MLA; nonspecific 10 μM nicotine; 3-4 independent experiments", "experimental": "(§2) Rat brain was dissected into the whole brain tissue without cortex and cerebellum and was frozen in liquid nitrogen and stored at −70° C. until use. The brain tissue was homogenized with a Tekmar Polytron (setting 40) in 20 volumes of ice-cold hypotonic buffer (2 mM HEPES, 14.4 mM NaCl, 0.15 mM KCl, 0.2 mM CaCl2 and […], pH=7.5). The homogenate was centrifuged at 25,000×g for 17 minutes at 4° C. The pellet was resuspended in 20 volumes of the same buffer, and incubated for 10 min at 37° C. The resuspension was cooled to 4° C. and then centrifuged at the above parameters. The pellet was resuspended by sonicaton and centrifuged using the same conditions. The final pellet was stored at −20° C. under 10 ml of the incubation buffer and was suspended just before incubation with radioligand.\n(§3) The binding of [^3H]NIC and [^3H]MLA to probe α4β2 and α7-type neuronal nicotinic acetylcholine receptors, respectively, was determined using [^3H]NIC (67 Ci/mmol) and [^3H]MLA (60 Ci/mmol), purchased from Perkin Elmer Life Sciences, Boston, Mass., U.S.A. and American Radiolabel Chemicals, Inc., St. Louis, Mo., U.S.A. Binding was performed in duplicate, in a final volume of 250 μl of the incubation medium, containing 20 mM HEPES, 144 mM NaCl, 1.5 mM KCl, 2 mM CaCl2, and 1 mM MgSO4, pH=7.5. Reaction was initiated by the addition of 100 μL of membrane suspension to the samples containing a desired concentration of test compounds and 3 nM [^3H]NIC or 3 nM [^3H]MLA (final concentrations) and incubated for 60 min at room temperature. Total binding was measured in the absence of unlabelled ligand and nonspecific binding was determined in the presence of 10 μM cytisine, for [^3H]NIC binding, and 10 μM nicotine for [^3H]MLA. The binding reaction was terminated by dilution of samples with 3 mL of ice-cold incubation buffer followed by immediate filtration through Unifilter-96 GFB-filter plates presoaked in 0.5% polyethylenimine using a Filtermate Harvester (Perkin Elmer, Shelton, Conn., U.S.A.). Filters were rinsed five times with 350 μL of ice-cold buffer, and then filter plates were dried at 48° C. for 60 min, bottom sealed and each well filled with 40 μL of Packard Microscint-20 cocktail. After 60 min of gentle shaking, the filter plates were top sealed and radioactivity measured using a Packard TopCount NXT scintillation counter. CPMs were processed through a Packard Windows NT operating system. Protein was measured using the Bradford dye-binding procedure with bovine serum albumin as the standard.\n(§4) The ability of a probe concentration of 100 nM of the tetrakis-quaternary ammonium salts to inhibit specific binding was evaluated.\nas §1"}, "[4]": {"biological_target": "T2, α4β2 neuronal nicotinic acetylcholine receptors (Rattus norvegicus, UniProt P09483+P12390)", "T2 construct": "The brain tissue was homogenized with a Tekmar Polytron; from tissue; host or cells: rat brain membranes (whole brain without cortex and cerebellum)", "T2 sequence (P09483 31-630)": "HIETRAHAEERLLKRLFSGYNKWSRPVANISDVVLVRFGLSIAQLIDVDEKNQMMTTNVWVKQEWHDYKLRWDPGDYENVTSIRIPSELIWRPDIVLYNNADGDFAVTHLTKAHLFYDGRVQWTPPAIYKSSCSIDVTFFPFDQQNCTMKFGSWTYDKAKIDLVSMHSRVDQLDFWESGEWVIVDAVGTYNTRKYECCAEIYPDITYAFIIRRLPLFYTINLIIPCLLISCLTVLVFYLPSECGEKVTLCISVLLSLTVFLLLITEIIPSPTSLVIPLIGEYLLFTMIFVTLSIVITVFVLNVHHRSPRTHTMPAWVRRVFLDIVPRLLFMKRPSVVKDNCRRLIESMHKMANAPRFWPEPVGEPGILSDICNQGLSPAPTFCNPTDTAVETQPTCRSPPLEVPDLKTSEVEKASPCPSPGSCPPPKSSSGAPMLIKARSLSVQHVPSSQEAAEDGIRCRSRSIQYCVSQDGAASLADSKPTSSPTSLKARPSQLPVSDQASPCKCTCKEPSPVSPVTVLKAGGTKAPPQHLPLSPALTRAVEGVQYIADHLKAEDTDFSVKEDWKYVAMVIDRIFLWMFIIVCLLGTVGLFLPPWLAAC", "T2 sequence (P12390 25-500)": "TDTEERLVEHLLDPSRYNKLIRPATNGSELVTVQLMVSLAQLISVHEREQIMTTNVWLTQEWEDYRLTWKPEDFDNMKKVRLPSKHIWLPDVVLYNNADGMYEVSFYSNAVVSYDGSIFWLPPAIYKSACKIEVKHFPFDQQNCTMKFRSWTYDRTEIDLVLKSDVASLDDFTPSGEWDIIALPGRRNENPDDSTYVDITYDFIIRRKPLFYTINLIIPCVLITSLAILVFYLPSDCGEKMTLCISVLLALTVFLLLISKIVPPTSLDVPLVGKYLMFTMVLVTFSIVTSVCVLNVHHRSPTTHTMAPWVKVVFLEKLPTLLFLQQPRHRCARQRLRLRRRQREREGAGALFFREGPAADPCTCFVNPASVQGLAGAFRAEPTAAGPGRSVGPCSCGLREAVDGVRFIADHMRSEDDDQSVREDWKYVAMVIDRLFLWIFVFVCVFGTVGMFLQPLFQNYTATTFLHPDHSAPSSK", "experiment": "Inhibition of [^3H]nicotine (NIC) binding to rat brain membranes", "conditions": "% inhibition at 100 nM analog; 3 nM [^3H]NIC; nonspecific 10 μM cytisine; 3-4 independent experiments", "experimental": "as §2, §3, §4, §1"}}, "data": [{"compound": "α-bungarotoxin", "values": [{"measurement": "Ki", "setting": "[1]", "result": "28.6 ± 5.4", "unit": "nM"}]}, {"compound": "[Br-].[Br-].[Br-].[Br-].c1c(CCCCC[n+]2ccc3c(c2)CCCC3)c(CCCCC[n+]2ccc3c(c2)CCCC3)cc(CCCCC[n+]2ccc3c(c2)CCCC3)c1CCCCC[n+]1ccc2c(c1)CCCC2", "values": [{"measurement": "inhibition at 0.1 µM", "setting": "[2]", "result": "27 ± 2", "unit": "%"}, {"measurement": "IC50", "setting": "[2]; Rattus norvegicus, full concentration response assay, 4-5 independent experiments in duplicate, 10 μM nicotine, read-out: IC50, inhibition of nicotine-evoked [^3H]DA release (converted)", "result": 56, "unit": "nM"}, {"measurement": "Inhibition of [^3H]MLA binding", "setting": "[3]", "result": "27 ± 15", "unit": "%"}, {"measurement": "Inhibition of [^3H]Nicotine binding", "setting": "[4]", "result": "0.9 ± 0.9", "unit": "%"}]}, {"compound": "Cc1cc[n+](CCCC#Cc2cc(C#CCCC[n+]3ccc(C)c(C)c3)c(C#CCCC[n+]3ccc(C)c(C)c3)cc2C#CCCC[n+]2ccc(C)c(C)c2)cc1C.[Br-].[Br-].[Br-].[Br-]", "values": [{"measurement": "inhibition at 0.1 µM", "setting": "[2]", "result": "17 ± 6", "unit": "%"}, {"measurement": "Inhibition of [^3H]MLA binding", "setting": "[3]", "result": "0.6 ± 0.6", "unit": "%"}, {"measurement": "Inhibition of [^3H]Nicotine binding", "setting": "[4]", "result": "9.8 ± 1.2", "unit": "%"}]}, {"compound": "[Br-].[Br-].[Br-].[Br-].c1ccc(-c2ccc[n+](CCCCCc3cc(CCCCC[n+]4cccc(-c5ccccc5)c4)c(CCCCC[n+]4cccc(-c5ccccc5)c4)cc3CCCCC[n+]3cccc(-c4ccccc4)c3)c2)cc1", "values": [{"measurement": "inhibition at 0.1 µM", "setting": "[2]", "result": "19 ± 15", "unit": "%"}, {"measurement": "Inhibition of [^3H]MLA binding", "setting": "[3]", "result": "33 ± 17", "unit": "%"}, {"measurement": "Inhibition of [^3H]Nicotine binding", "setting": "[4]", "result": "6.6 ± 4.5", "unit": "%"}]}]}
